Source: patent EP1790345A1, “Triazin beta-secretase inhibitors” (Esbatech AG, priority 2005, dated 2007)

Legend:
[1] = system: Swedish APP695 transgenic HEK293 cells; assay: Aβ1-40 (Sw) bioassay (ELISA of Aβ1-40 in cell supernatant); format: cell-based; details: for % reduction of Aβ1-40 secretion: Swedish APP695 transgenic HEK293 cells, ELISA; for IC50: Homo sapiens, HEK293, concentration that reduces Aβ1-40 secretion to 50 %, read-out: IC50 Aβ1-40(sw) bioassay (cell-based)
From the text: (§1) The tests performed were • a) Aβ1-40 (Sw) bioassay, which measures the amount of the amyoid peptide Aβ1-40 in the supernatant of Swedish APP695 transgenic HEK293 cells in the presence of the various BACE inhibitors via ELISA (enzyme-linked immunosorbent assay). In the table, the inhibitory concentration that reduces Aβ1-40 secretion to 50 % is indicated (IC50), or the % reduction of Aβ1-40 secretion at the indicated concentration. • b) FRET assay, which measures the activity of recombinant BACE enzyme in the presence of the various BACE inhibitors via a FRET (fluorescence resonance energy transfer)-based readout. In the table, the inhibitory concentration that reduces the activity of BACE to 50 % is indicated (IC50), or the % reduction of the activity of BACE at the indicated concentration. • c) An additional in silico test was performed for the compounds listed in Tables 1 to 3. The compounds were docked with the FFLD approach (Budin et al., Biol. Chem. 382, 1365-1372, 2001) and their binding energy was evaluated with the LIECE method (Huang and Caflisch, J. Med. Chem. 47, 5791-5797, 2004). The affinity evaluated with LIECE is in the low micromolar range for most of these compounds.

[2] = molecular target: recombinant BACE enzyme (Homo sapiens, UniProt P56817); assay: BACE FRET assay (in vitro); format: biochemical; details: concentration that reduces the activity of BACE to 50 %
From the text: as §1

recombinant BACE enzyme, sequence (P56817 46-501, species assumed): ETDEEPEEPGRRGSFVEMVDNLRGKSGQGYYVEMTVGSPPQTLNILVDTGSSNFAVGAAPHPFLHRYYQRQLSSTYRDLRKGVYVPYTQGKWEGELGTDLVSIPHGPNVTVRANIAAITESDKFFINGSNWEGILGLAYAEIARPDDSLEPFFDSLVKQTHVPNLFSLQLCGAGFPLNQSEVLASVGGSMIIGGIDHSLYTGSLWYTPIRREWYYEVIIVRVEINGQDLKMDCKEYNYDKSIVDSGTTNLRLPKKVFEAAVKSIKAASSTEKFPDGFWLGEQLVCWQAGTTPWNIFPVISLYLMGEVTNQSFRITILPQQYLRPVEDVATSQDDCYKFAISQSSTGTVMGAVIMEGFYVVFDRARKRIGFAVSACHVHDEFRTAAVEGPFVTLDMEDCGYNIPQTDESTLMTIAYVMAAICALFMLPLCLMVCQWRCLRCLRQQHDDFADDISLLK

Row | Structure (SMILES) | IC50 [2] | further results
1 | Cc1ccc(C)c(Nc2nc(N/N=C/c3cc(Br)c(O)c(Br)c3O)nc(N3CCOCC3)n2)c1 [Compound 205A04] | 81.8 µM | % reduction of Aβ1-40 secretion ([1]; at 5 µM): No (5 µM)
2 | O=C(O)c1cc(-c2ccc(/C=N/Nc3nc(Nc4ccccc4)nc(N4CCCCC4)n3)o2)ccc1Cl [Compound 250A05] | 142 µM | IC50 [1]: 10 to 20 µM
3 | Cc1ccc(Nc2nc(N/N=C/c3cc(Br)cc(Br)c3O)nc(N3CCOCC3)n2)cc1Cl [Compound 206E02] | 20.6 µM | % reduction of Aβ1-40 secretion ([1]; at 50 µM): 27% (50 µM)
4 | Oc1c(Br)cc(Br)cc1/C=N/Nc1nc(Nc2ccccc2)nc(Nc2ccccc2)n1 [Compound 251A07] | 10.6 µM | 
5 | Oc1c(Br)cc(Br)cc1/C=N/Nc1nc(Nc2ccccc2)nc(N2CCCC2)n1 [Compound 251B07] | 45.4 µM | 
6 | Cc1ccc(Nc2nc(N/N=C/c3cc(Br)cc(Br)c3O)nc(N3CCOCC3)n2)cc1 [Compound 205C07] | 48.1 µM | % reduction of Aβ1-40 secretion ([1]; at 50 µM): No (50 µM)
7 | Oc1c(Br)cc(/C=N/Nc2nc(Nc3ccccc3)nc(Nc3ccccc3)n2)cc1Br [Compound 202E09] | 53.9 µM | % reduction of Aβ1-40 secretion ([1]; at 5 µM): 25% (5 µM)
8 | O=C(O)c1cc(-c2ccc(C=NNc3nc(Nc4ccc(F)cc4)nc(N4CCCCC4)n3)o2)ccc1O [Compound 250B05] | 30.9 µM | IC50 [1]: 10 to 20 µM
9 | CNc1nc(N/N=C/c2ccc(-c3ccc([N+](=O)[O-])cc3)o2)nc(Nc2ccccc2)n1 [Compound 251C08] | 24.4 µM | 
10 | Oc1c(I)cc(I)cc1/C=N/Nc1nc(Nc2ccccc2)nc(Nc2ccccc2)n1 [Compound 201G06] | 25.5 µM | % reduction of Aβ1-40 secretion ([1]; at 5 µM): No (5 µM)
11 | Clc1ccccc1-c1ccc(/C=N/Nc2nc(Nc3ccccc3)nc(Nc3ccccc3)n2)o1 [Compound 251F09] | 188 µM | 
12 | O=[N+]([O-])c1cc(-c2ccc(/C=N/Nc3nc(N4CCOCC4)nc(N4CCOCC4)n3)o2)ccc1Cl [Compound 251A10] | 124 µM | 
13 | COc1ccc(Nc2nc(NN=Cc3ccc(-c4cccc(C(=O)O)c4)o3)nc(Nc3ccccc3)n2)cc1 [Compound 250B04] | 66.6 µM | IC50 [1]: 10 to 20 µM
14 | Oc1c(Cl)cc(Br)cc1/C=N/Nc1nc(Nc2ccccc2)nc(Nc2ccccc2)n1 [Compound 201G11] | 11.9 µM | % reduction of Aβ1-40 secretion ([1]; at 5 µM): 26% (5 µM)
15 | O=C(O)c1cc(-c2ccc(C=NNc3nc(Nc4ccc(F)cc4)nc(N4CCOCC4)n3)o2)ccc1Cl [Compound 250C04] | 7.1 µM | % reduction of Aβ1-40 secretion ([1]; at 25 µM): 0 (25 µM)
16 | COc1ccc(Nc2nc(N/N=C/c3cc(Br)cc(Br)c3O)nc(N3CCOCC3)n2)cc1 [Compound 251A09] | 34.4 µM | 
17 | Oc1c(Cl)cc(Cl)cc1/C=N/Nc1nc(Nc2ccccc2)nc(Nc2ccccc2)n1 [Compound 201C08] | 11.2 µM | % reduction of Aβ1-40 secretion ([1]; at 5 µM): 25% (5 µM)
18 | Oc1c(Br)cc(/C=N/Nc2nc(N3CCCCC3)nc(N3CCCCC3)n2)c(O)c1Br [Compound 251G09] | 170 µM | 
19 | Cc1ccc(Cl)cc1-c1ccc(/C=N/Nc2nc(N3CCOCC3)nc(N3CCOCC3)n2)o1 [Compound 251C10] | > 100 µM | 
